The source of these data is patent US9796753B2, “N-substituted indenoisoquinolines and syntheses thereof” (Purdue Research Foundation, priority 2005, dated 2017).

pIC50: −log10 of the molar value. Like-named read-outs stand apart in the source and are kept apart here.

In series [1] the target is recombinant TDP1 (Homo sapiens, UniProt Q9NUW8). The series can be described thus: Gel-based assay measuring the inhibition of recombinant TDP1. The series is classed as biochemical. The procedure:
A 5′-[^32P]-labeled single-stranded DNA oligonucleotide containing a 3′-phosphotyrosine (N14Y) was generated as described by Dexheimer et al. (J. Med. Chem. 2009, 52, 7122-7131). The DNA substrate was then incubated with 5 μM recombinant TDP1 in the absence or presence of inhibitor for 15 min at room temperature in a buffer containing 50 mM Tris HCl, pH 7.5, 80 mM KCl, 2 mM EDTA, 1 mM DTT, 40 μg/ml BSA and 0.01% Tween-20. Reactions were terminated by the addition of 1 volume of gel loading buffer [99.5% (v/v) formamide, 5 mM EDTA, 0.01% (w/v) xylene cyanol, and 0.01% (w/v) bromophenol blue]. Samples were subjected to a 16% denaturing PAGE and gels were exposed after drying to a PhosphorImager screen (GE Healthcare). Gel images were scanned using a Typhoon 8600 (GE Healthcare) and densitometric analyses were performed using the ImageQuant software (GE Healthcare).
The TDP1 inhibitory activities of the O-2-substituted indenoisoquinolines were measured by determining their abilities to inhibit the hydrolysis of the phosphodiester linkage between tyrosine and the 3′-end of a DNA oligonucleotide substrate and thus prevent the generation of an oligonucleotide with a free 3′-phosphate (N14P, Scheme 13). Therefore, the disappearance of the gel band for N14P indicates TDP1 inhibition.
Tyrosyl-DNA phosphodiesterase 1 (TDP1) is a DNA repair enzyme that repairs cytotoxic DNA damage induced by Top1 inhibitors.

Series [2] concerns all human cancer cell lines successfully tested. Put plainly: NCI screen mean graph midpoint (MGM) for growth inhibition. It is filed as cell-based. Conditions: Homo sapiens; read-out: MGM GI50. The procedure, abridged:
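NCI60 panel cells exposed to compound at 100, 10, 1, 0.1 and 0.01 μM for 48 h, then sulforhodamine B staining. Percentage growth versus control plotted against log concentration; MGM is the midpoint across all lines tested.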

In series [3] the target is T1, Human recombinant Top1 (Homo sapiens, UniProt P11387).
T1 construct: made in house
T1 sequence (P11387 1-765): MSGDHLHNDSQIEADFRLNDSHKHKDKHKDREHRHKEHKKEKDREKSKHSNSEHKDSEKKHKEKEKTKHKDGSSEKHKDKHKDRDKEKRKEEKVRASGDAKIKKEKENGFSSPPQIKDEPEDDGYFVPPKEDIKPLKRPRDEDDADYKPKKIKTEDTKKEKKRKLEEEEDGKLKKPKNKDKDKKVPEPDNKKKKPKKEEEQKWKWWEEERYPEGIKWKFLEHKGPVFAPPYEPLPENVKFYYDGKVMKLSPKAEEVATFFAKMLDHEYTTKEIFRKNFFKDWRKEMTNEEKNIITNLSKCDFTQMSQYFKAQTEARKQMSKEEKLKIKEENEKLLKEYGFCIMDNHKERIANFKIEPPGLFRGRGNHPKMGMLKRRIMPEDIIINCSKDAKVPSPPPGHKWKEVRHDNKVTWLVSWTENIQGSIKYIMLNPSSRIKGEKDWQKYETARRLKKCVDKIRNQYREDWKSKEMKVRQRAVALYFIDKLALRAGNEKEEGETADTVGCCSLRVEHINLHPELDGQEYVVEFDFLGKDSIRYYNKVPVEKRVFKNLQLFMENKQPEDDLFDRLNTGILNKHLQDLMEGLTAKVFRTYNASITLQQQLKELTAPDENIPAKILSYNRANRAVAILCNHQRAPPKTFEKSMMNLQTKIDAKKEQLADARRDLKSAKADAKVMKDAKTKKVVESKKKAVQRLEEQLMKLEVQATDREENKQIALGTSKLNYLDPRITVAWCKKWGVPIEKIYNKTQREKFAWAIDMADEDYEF
The series can be described thus: Topoisomerase 1-mediated DNA cleavage reactions (B), 117-bp DNA oligonucleotide. The series is classed as biochemical. The arrangement: key to Top1 inhibitory activity (level): 0, no detectable activity; +, weak activity; ++, similar activity to compound 33; +++, greater activity than 33; ++++, equipotent to 32; Ambiguous scores (e.g., between two values) are designated with parentheses (e.g., ++(+) would be between ++ and +++); key to Top1 (compound-induced DNA cleavage due to Top1 inhibition): 0, no detectable activity; +, weak activity; ++, similar activity to compound 5; +++, greater activity than 34; ++++ , equipotent to 32; The (+) ranking indicates the activity lies between two given values. Conditions: Table 5; for Top1 inhibitory activity (level): relative to compounds 32 and 33; for Top1 (compound-induced DNA cleavage due to Top1 inhibition): semiquantitative scale relative to 1 μM camptothecin (32) or MJ-III-65 (34). The procedure:
Human recombinant Top1 was purified from baculovirus as described in Bailly, C. Curr. Med. Chem. 2000, 7, 39-58. DNA cleavage reactions were prepared as previously reported with the exception of the DNA substrate in Saltz, et al. Oncologist 1997, 2, 402-409.
Approximately 2 nM radiolabeled DNA substrate was incubated with recombinant Top1 in 20 μL of reaction buffer [10 mM Tris-HCl (pH 7.5), 50 mM KCl, 5 mM MgCl2, 0.1 mM EDTA, and 15 μg/mL BSA] at 25° C. for 20 min in the presence of various concentrations of compounds. […] Aliquots of each reaction mixture were subjected to 20% denaturing PAGE. Gels were dried and visualized using a phosphoimager and ImageQuant software (Molecular Dynamics).
All of the new indenoisoquinoline derivatives with C-2 side chains were tested in Top1-mediated DNA cleavage assays. For this purpose, a ^32P 3′-end labeled 117-bp DNA fragment was incubated with Top1 and four 10-fold dilutions starting from 100 μM of a tested compound. The DNA fragments were separated on 20% PAGE denaturing gels. The Top1 inhibitory activities were assigned on the basis of the visual inspection of the number and intensities of the gel bands corresponding to Top1-mediated DNA cleavage fragments. […] Ambiguous scores (e.g., between two values) are designated with parentheses (e.g., ++(+) would be between ++ and +++).

Where [4] appears, read: Table 7, scores correspond to IC50 ranges, read-out: TDP1 inhibition.
The mark [5] stands for this setting: Table 5, determined in duplicate, read-out: TDP1 (IC50, semiquantitative scale).
Setting [6] is: Table 5, determined in duplicate, read-out: TDP1 inhibitory activity (potency score).

recombinant TDP1, sequence (Q9NUW8 whole entry): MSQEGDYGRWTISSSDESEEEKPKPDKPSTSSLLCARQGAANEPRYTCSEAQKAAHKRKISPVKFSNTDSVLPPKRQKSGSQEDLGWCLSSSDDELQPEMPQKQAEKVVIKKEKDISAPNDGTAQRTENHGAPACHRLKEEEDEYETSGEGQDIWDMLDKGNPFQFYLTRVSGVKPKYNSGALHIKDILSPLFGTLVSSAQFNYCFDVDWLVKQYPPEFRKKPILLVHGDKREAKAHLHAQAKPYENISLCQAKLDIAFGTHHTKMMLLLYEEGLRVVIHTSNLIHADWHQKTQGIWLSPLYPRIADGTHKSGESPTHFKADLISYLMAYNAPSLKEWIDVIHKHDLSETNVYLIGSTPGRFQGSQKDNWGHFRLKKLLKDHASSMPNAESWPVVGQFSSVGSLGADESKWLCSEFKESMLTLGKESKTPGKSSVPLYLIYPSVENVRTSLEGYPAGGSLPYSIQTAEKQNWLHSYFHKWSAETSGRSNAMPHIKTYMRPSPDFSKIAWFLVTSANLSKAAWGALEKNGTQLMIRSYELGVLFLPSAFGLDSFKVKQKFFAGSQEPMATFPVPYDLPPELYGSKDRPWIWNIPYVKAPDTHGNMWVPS

By melting point is commonly meant the temperature of the solid-liquid transition. As to `COC1C=c2c3c([nH]c(=O)c2=CC1(CCCN1CCSCC1)OC)-c1cc2c(cc1C3=O)OCO2` (centres unmarked) [Compound 5r, 3-[(Thiomorpholin-4-yl)-1-propyl]-5,6-dihydro-2,3-dimethoxy-8,9-methylenedioxy-5,11-dioxo-11H-indeno[1,2-c]isoquinoline], the melting point was in the range of 306 to 308 °C.

What is called GI50 is the concentration that inhibits growth by half. With `O=C1c2cc3c(cc2-c2c1c1cc(Cl)c(Cl)cc1c(=O)n2CCCn1ccnc1)OCO3` [Compound 44], the pIC50 in series [1] (setting [4]) is below 3.95. Besides, the GI50 in series [2] stood at 0.017 µM.

Consider `CCNCCCOc1cc2c3c(n(CCCN4CCOCC4)c(=O)c2cc1OC)-c1cc2c(cc1C3=O)OCO2` [Compound 24, 2-(3-(Ethylamino)propoxy)-3-methoxy-6-(3-morpholinopropyl)-5H-[1,3]dioxolo [4′,5′:5,6]indeno[1,2-c]isoquinoline-5,12(6H)-dione], for which the pIC50 in series [1] (setting [5]) was 4.43 to 4.92. The pIC50 in series [1] (setting [6]) is 4.43 to 4.92. In addition, in series [3], the “Top1 inhibitory activity (level)” value is on record as “+++” and the “Top1 (compound-induced DNA cleavage due to Top1 inhibition)” value was “+++”.

Regarding `O=C1c2cc3c(cc2-c2c1c1ccc(F)cc1c(=O)n2CCCN1CCOCC1)OCO3` [Compound 37], the pIC50 in series [1] (setting [4]) is below 3.95.

On to `O=C1c2cc3c(cc2-c2c1c1ccc(F)cc1c(=O)n2CCCNCCO)OCO3` [Compound 38], for which the pIC50 in series [1] (setting [4]) is 4.92 to 6.00. The GI50 in series [2] was determined as 0.055 µM.

As for `O=C1c2cc3c(cc2-c2c1c1ccc(Cl)cc1c(=O)n2CCCn1ccnc1)OCO3` [Compound 39], the pIC50 in series [1] (setting [4]) was 3.95 to 4.43. Also, the 50% growth inhibitory concentration (GI50) in series [2] stood at 0.024 µM.

For `O=C1c2cc3c(cc2-c2c1c1ccc(Cl)cc1c(=O)n2CCCNCCO)OCO3` [Compound 41], the pIC50 in series [1] (setting [4]) was 4.92 to 6.00. Besides, the concentration for 50% growth inhibition (GI50) in series [2] was 0.229 µM.

As to `O=C1c2cc3c(cc2-c2c1c1cc(F)c(F)cc1c(=O)n2CCCn1ccnc1)OCO3` [Compound 42], the pIC50 in series [1] (setting [4]) was below 3.95. For the same compound, the 50% growth inhibitory concentration (GI50) in series [2] was 0.03 µM.

Regarding `COc1cc2c3c(n(CCCNCCC4COCCN4)c(=O)c2cc1OC)-c1cc2c(cc1C3=O)OCO2` (centres unmarked) [Compound 5x, 6-[(3-Morpholylethylamino)-1-propyl]-5,6-dihydro-2,3-dimethoxy-8,9-methylenedioxy-5,11-dioxo-11H-indeno[1,2-c]isoquinoline], the melting point lay in the range of 215 to 217 °C.

Compound `COC1C=c2c3c([nH]c(=O)c2=CC1(CCCN1CCOCC1)OC)-c1cc2c(cc1C3=O)OCO2` (centres unmarked) [Compound 5q, 3-[(Morpholin-4-yl)-1-propyl]-5,6-dihydro-2,3-dimethoxy-8,9-methylenedioxy-5,11-dioxo-11H-indeno[1,2-c]isoquinoline] gave a melting point of 290 to 292 °C.

For the compound `COc1cc2c(=O)n(CCCN3CCOCC3)c3c(c2cc1OCC(=O)NN)C(O)c1cc2c(cc1-3)OCO2` (centres unmarked) [Compound 31, 2-((12-Hydroxy-3-methoxy-6-(3-morpholinopropyl)-5-oxo-6,12-dihydro-5H-[1,3]dioxolo[4′,5′:5,6]indeno[1,2-c]isoquinolin-2-yl)oxy)acetohydrazide], in series [1] (setting [5]), the pIC50 is below 3.95. Further, in series [3], the “Top1 inhibitory activity (level)” value was “+ or ++” and the “Top1 (compound-induced DNA cleavage due to Top1 inhibition)” value is given as “+”.

`COc1cc2c(=O)n(CCCN3CCOCC3)c3c(c2cc1OCCCN(C)C)C(=O)c1cc2c(cc1-3)OCO2` [Compound 23, 2-(3-(Dimethylamino)propoxy)-3-methoxy-6-(3-morpholinopropyl)-5H-[1,3]dioxolo[4′,5′:5,6]indeno[1,2-c]isoquinoline-5,12(6H)-dione]: in series [1] (setting [5]), the pIC50 is 4.43 to 4.92. Besides, the pIC50 in series [1] (setting [6]) is 4.43 to 4.92. Further, in series [3], the “Top1 inhibitory activity (level)” value is on record as “+++” and the “Top1 (compound-induced DNA cleavage due to Top1 inhibition)” value is recorded as “+++”.

As to `O=C1c2cc3c(cc2-c2c1c1ccc(F)cc1c(=O)n2CCCn1ccnc1)OCO3` [Compound 36], the pIC50 in series [1] (setting [4]) was below 3.95. Also, the concentration for 50% growth inhibition (GI50) in series [2] amounted to 0.011 µM.

Compound `COc1cc2c(=O)n(CCCN3CCOCC3)c3c(c2cc1OCCCBr)C(=O)c1cc2c(cc1-3)OCO2` [Compound 19, 2-(3-Bromopropoxy)-3-methoxy-6-(3-morpholinopropyl)-5H-[1,3]dioxolo[4′,5′: 5,6]indeno[1,2-c]isoquinoline-5,12(6H)-dione] registered a melting point of 197 to 199 °C.

For the compound `COc1cc2c(=O)n(CCCN3CCOCC3)c3c(c2cc1OCCCN1CCN(C)CC1)C(=O)c1cc2c(cc1-3)OCO2` [Compound 26, 3-Methoxy-2-(3-(4-methylpiperazin-1-yl)propoxy)-6-(3-morpholinopropyl)-5H-[1,3]dioxolo[4′,5′:5,6]indeno[1,2-c]isoquinoline-5,12(6H)-dione], the “TDP1 inhibitory activity (in words)” value in series [1] is “no TDP1 inhibitory activity was observed”. For the same compound, in series [1] (setting [5]), the pIC50 was below 3.95. Besides, in series [3], the “Top1 inhibitory activity (level)” value is “+++” and the “Top1 (compound-induced DNA cleavage due to Top1 inhibition)” value is listed as “+++”.
